B1: BDNF: classical neurotrophic factor, used as an endogenous activator of the signalling pathway under investigation (protein, UniProt P23560 19-247, looked up)
Neurotrophic factor BDNF …: APMKEANIRGQGGLAYPGVRTHGTLESVNGPKAGSRGLTSLADTFEHVIEELLDEDQKVRPNEENNKDADLYTSRVMLSSQVPLEPPLLFLLEEYKNYLDAANMSMRVRRHSDPARRGELSVCDSISEWVTAADKKTAVDMSGGTVTVLEKVPVSKGQLKQYFYETKCNPMGYTKEGCRGIDKRHWNSQCRTTQSYVRALTMDSKKRIGWRFIRIDTSCVCTLTIKRGR

Experiments:
[1] = system: dopaminergic TH-positive neurons injured with MPP+; test: MPP+ in vitro Parkinson's disease model, mitochondrial ROS in TH neurons at 4 hours (TH/ROS plate); type: cell-based, rat; conditions: CF3CN 10 nm to 1 μm, 1 h pre-incubation, MPP+ 4 μM, FIG. 1
Protocol: (§1) The ventral portion of the mesencephalic flexure, a region of the developing brain rich in dopaminergic neurons, was used for the cell preparations.
(§2) (solution at a final concentration of 0.05% trypsin and 0.02% EDTA). […] Cells were then mechanically dissociated by 3 passages through a 10 ml pipette. Cells were then centrifuged at 180×g for 10 min at +4° C. on a layer of BSA (3.5%) in L15 medium. […] Viable cells were counted in a Neubauer cytometer using the trypan blue exclusion test. […] Half of the medium was changed every 2 days with fresh medium.

[2] = system: primary SOD1 transgenic spinal cord motor neurons injured with glutamate; test: In vitro ALS model: glutamate-injured primary spinal motor neurons (MAP2/TDP43, 24 hours); type: cell-based, rat; conditions: for number of motor neurons: FIG. 5
Protocol: Cells were mechanically dissociated by three forced passages through the tip of a 10-ml pipette. Cells were then centrifuged at 515×g for 10 min at 4° C. […] Viable cells were counted in a Neubauer cytometer, using the trypan blue exclusion test. […] The medium was changed every 2 days.

[3] = system: dopaminergic TH-positive neurons injured with MPP+; test: MPP+ in vitro Parkinson's disease model, TH/αSyn plate at 48 hours (α-syn, DA neurons, neurites); type: cell-based, rat; conditions: MPP+ 4 μM
Protocol: as §1, §2
The cells were washed twice in PBS, and then permeabilized.

5XFAD mice = conditions: repeated administration, WO2020/033604; cited from earlier work

Molecule | reduction of mitochondrial stress (ROS in TH(+) neurons) [1] | neurite network ([2]; CF3CN 10 and 100 nm, glutamate 5 μM 20 min, 24 hours, compared to the control, FIG. 6) | level of extranuclear TDP-43 versus the positive controls ([2]; CF3CN 10 nm and 100 nm, compared with Riluzole 5 μM and BDNF 50 ng/ml) | number of motor neurons ([2]; CF3CN 10 nm, 100 nm and 1 μm, glutamate 5 μM 20 min, 24 hours, compared to the control) | number of extranuclear TDP-43 ([2]; CF3CN all concentrations except the highest and the lowest (10 nM to 5 μM), glutamate 5 μM 20 min, 24 hours, FIG. 7) | level of neurites ([3]; CF3CN 1 nm to 1 μm, FIG. 4) | number of DA neurons ([3]; CF3CN 10 and 100 nm, FIG. 3) | level of α-syn ([3]; all dose levels (1 nM to 5 μM) except 10 μm, FIG. 2) | synaptic loss (5XFAD mice) | number of motor neurons ([2]; positive controls: Riluzole 5 μM, BDNF 50 ng/ml, glutamate 5 μM 20 min, 24 hours, compared to the control)
N#Cc1ccc(-c2cc(=O)c3ccc4[nH]c(C(F)(F)F)nc4c3o2)cc1 [CF3CN, 4-(6-oxo-2-(trifluoromethyl)-3,6-dihydrochromeno[7,8-d]imidazol-8-yl)benzonitrile] | statistically significantly reduced ROS | increased the neurite network in a statistically significant manner | greater decrease in the level of extranuclear TDP-43 than the positive controls | statistically significant increase in the number of motor neurons | decreased the number of extranuclear TDP-43 in a statistically significant manner | increase the level of neurites | increase the number of DA neurons | statistically significantly reduce the level of α-syn | prevent synaptic loss | –
B1 | – | – | – | – | – | – | – | – | – | statistically significant increase in the number of motor neurons

— patent US20250170103A1, “4-(6-OXO-2-(TRIFLUOROMETHYL)-3,6-DIHYDROCHROMENO[7,8-D]IMIDAZOL-8-YL)BENZONITRILE FOR USE IN THE TREATMENT OF DISEASES AND CONDITIONS ASSOCIATED WITH MOVEMENT DISORDERS” (OnTrack Therapeutics Limited, priority 2022, published 2025)
